Laboratory results taken from article PMC11345766, “Computational Design of Pore-Forming Peptides with Potent Antimicrobial and Anticancer Activities” (Journal of Medicinal Chemistry, 2024).
Ends that are not written are not given here.

Experiments:
E. coli AIC221 = details: E. coli / AIC221 / Prot. d; Prot. d
E. coli AIC222 (COL) = details: E. coli / AIC222 / COL / Prot. d; Prot. d
E. coli ATCC 11775 = details: E. coli / ATCC 11775 / Prot. d; Prot. d
[1] = tested on: E. coli E1098 (GEN, AMI, IMI, MER); details: E. coli / E1098 / GEN, AMI, IMI, MER / Prot. c; Prot. c
[2] = AFM imaging of supported lipid bilayers; details: P:L 1:500 (1 μM peptide)
Description: The SLBs were composed of POPC:POPG (1:1 mol/mol) lipids, the same composition used in the dye leakage assay. […] The pores were stable for an investigation period of 2 h and were visibly more numerous than those produced by LP1.[29]
Effects of peptides on the SLBs composed of POPC:POPG (1:1 mol/mol) lipids was investigated using AFM. LUVs were prepared in lipid dissolution buffer (50 mM Tris–HCl and 50 mM KCl) following a dye leakage assay protocol without calcein. Vesicles were sonicated for 30 min at 25 °C and extruded through a 50 nm pore size filter to form small unilamellar vesicles (SUVs). Following the vesicle deposition method,[103] SLBs were formed on mica using SUVs in SLB-forming buffer (50 mM Tris–HCl and 300 mM KCl) and 5 mM CaCl2, mounting a total volume of 150 μL on mica. After 1 h incubation at 25 °C, mica was washed 10 times with SLB-forming buffer and subjected to AFM analysis. The investigated P:L ratio was 1:500 (mol/mol). Bruker Dimension Icon AFM (USA) equipped with a PeakForce-HIRS-F-B silicon nitride probe (spring constant 0.12 N/m) was used to capture topographic images. PeakForce Quantitative NanoMechanic hybrid mode was used with 2 kHz frequency and 25 nm amplitude using set point <100 pN. The scan rate was 1 Hz using 512 samples/line. […]

[3] = tested on: A. baumannii Z13 (GEN, AMI, IMI, MER); details: A. baumannii / Z13 / GEN, AMI, IMI, MER / Prot. c; Prot. c
[4] = tested on: K. pneumoniae 4371 (GEN, AMI, IMI, MER); details: K. pneumoniae / 4371 / GEN, AMI, IMI, MER / Prot. c; Prot. c
[5] = tested on: MOLM-13, MEC-1 and SU-DHL-4 cancer cell lines; details: 24 h
Description: Anticancer activity of peptides against acute myeloid leukemia MOLM-13, chronic lymphocytic leukemia MEC-1, and diffuse large B-cell lymphoma SU-DHL-4 cell lines was tested using a WST cell viability assay. Cells were cultured in 75 cm^2 culture flasks at 37 °C in 5% CO2 according to the DSMZ recommendations before the start of the experiment. Then, the cells were seeded into 96-well plates in quadruplicate at 2.5 × 10^4 cells/well for SU-DHL-4, and 5 × 10^4 cells/well for MEC-1 and MOLM-13. Cells were treated with either peptides or PBS alone (negative control) for 24–72 h at 37 °C in 5% CO2. After incubation, cell viability was measured by WST-1 (Roche) according to the manufacturer’s instructions using Tecan microplate reader Infinite M200 PRO Plex and expressed as percentage compared to control.

[6] = tested on: normal B and T lymphocytes, granulocytes, and monocytes in whole blood; assay: Viability by flow cytometric staining in whole blood; assay type: cell-based, human; details: up to the highest tested concentration of 50 μM; 16 h
Description: Finally, we tested the effect of LP1 and LP40 on healthy primary cells in whole blood from a healthy donor (Figure S11).
The whole blood was seeded in a 96-well plate at 200 μL/well and treated with peptides for 16 h. The samples were then stained with anti-CD3 (FITC, Sony), anti-CD14 (APC-Cy7, Sony), and anti-CD19 (PE, Beckman Coulter) antibodies and incubated for 20 min at room temperature in the dark. The cells were then incubated with red blood cell lysis buffer for 10 min at room temperature, centrifuged, resuspended in PBS containing SYTOX Blue Dead Cell Stain (Thermo Fisher Scientific) and measured using a FACSVerse flow cytometer (BD Biosciences).

[7] = tested on: panel of 20 different human cancer and 2 noncancerous cell lines; assay type: cell-based; details: 72 h
Description: First, we tested LP40 and LP1 for anticancer activity at the physiological pH. The peptides were screened against a panel of 20 different human cancer and 2 noncancerous cell lines using a CellTiter-Glo luminescent cell viability assay (Figure 6b). […] For few exceptional cell lines, the activity of LP40 was below 10 μM.
The CellTiter-Glo luminescent cell viability assay examining the impact of peptides on 22 different human cell lines was purchased from Reaction Biology Europe GmbH (Germany). Cells were cultured in different media (Table S1), seeded into a flat-bottom 96-well plate, and incubated at 37 °C. After overnight incubation, test compounds were added with 1% PBS/0.3% Tween 20 and the reference compound bortezomib was added with 0.1% DMSO. Negative controls were solvents alone, and positive control was 10 μM staurosporine. After 72 h of incubation at 37 °C, 5 or 10% CO2 (dependent on the medium), and 1 h equilibration at room temperature, well plates were treated with CellTiter-Glo reagent (Promega) for an hour and luminescence was measured using a luminometer.

MCF-7 cells = assay: Immunoblotting of cleaved PARP and caspase-3; assay type: cell-based, human; details: 1 h treatment; media of different pH
Description: Furthermore, immunoblotting detection of cleaved PARP and caspase-3 markers confirmed the induction of apoptosis in MCF-7 cells by the peptides (Figure S10c).
MCF-7 cells were seeded at 2.5 × 10^5 cells/well in a 24-well plate 1 day before the experiment. Cells were treated with either peptides or PBS alone (negative control) and cultured in different media for 1 h. Cells were lysed using a buffer consisting of 1% SDS, 50 mM Tris–HCl (pH 6.8), and 10% glycerol with phosphatase and protease inhibitors. The protein concentration was determined by using the DC Protein Assay (Bio-Rad). Proteins were separated by SDS-PAGE and transferred to the PVDF membrane with a 0.45 μm pore size. The membranes were incubated with primary antibodies to detect cleaved PARP (no. 5625, 1:1000, Cell Signaling), total PARP (no. 9542, 1:2000, Cell Signaling), cleaved caspase-3 (no. 9664, 1:1000, Cell Signaling), or β-actin (no. 4970, 1:2000; Cell Signaling). Secondary HRP-linked antirabbit antibody (1:2000, Cell Signaling) was used to detect primary antibodies. Signal was detected using Clarity Western ECL Substrate (BioRad) and UVITEC Alliance (Uvitec).

Work on “KKKKLKKILKKLFQFINQLDNQLQDIKKKK-NH2 [LP18]” yielded an MIC (E. coli AIC221) of 1.6 µM, an MIC (E. coli AIC222 (COL)) of 1.6 µM and an MIC (E. coli ATCC 11775) of 1.6 µM. For the same substance, the MIC [1] was 2 µM and the “Membrane defects or pores formed on SLBs” value [2] was “significantly higher number of membrane defects or pores than LP1”.
For “KKKKLKKILKKLFQFINQLDNQLQDIKQNK-NH2 [LP1]”, the MIC [3] was 4 µM, the MIC [4] was 16 µM and the IC50 [5] was under 10 µM. For the same substance, the “Effect on healthy primary cells in whole blood” value [6] was “no apparent deleterious effect”.
In the case of “H-HHHHLKKILKKLFQFINQLDNQLQDIHHHH-OH [LP40]”, the IC50 [7] is reported as over 100 µM, the IC50 [5] is reported as 1 to 20 µM and the “Cleaved PARP and caspase-3 (apoptosis)” value (MCF-7 cells) is reported as “higher at pH 6”.
